# Experimental data as given in patent US20240270801A1, “EPITOPE PEPTIDE OF HUMAN ALPHA-SYNUCLEIN AND PHARMACEUTICAL COMPOSITION INCLUDING SAID PEPTIDE” (Sumitomo Pharma Co., Ltd., priority 2021, published 2024).
# Non-standard residues stand in square brackets, D forms with d. No end group written: not given here. Ahx = NCCCCCC(=O)O
# Legend:
# [1] = tested on: aggregated human αSyn; experiment: Antibody-inducing ability in mice: ELISA antibody titer of immune serum with respect to aggregated human αSyn; format: in vivo, mouse; details: for Antibody titer with respect to aggregated human αSyn, relative to control: mice; for Antibody titer with respect to aggregated human αSyn (N = 4 − 6, mean ± standard deviation): Example 2, serum 2 weeks after second administration
# Method: (§1) Using the various AJ peptide-human αSyn peptide conjugates produced in Example 1, an antibody-inducing ability with respect to human αSyn in mice was evaluated. The various AJ-human αSyn peptide conjugates (250 μg/mouse) or KLH-DMPVDPDN (25 μg/mouse) in physiological saline were intramuscularly administered to balb/c mice (females, 6 weeks old, CLEA Japan, Inc.) twice at a 2-week interval for immunization using aluminum hydroxide (Alum) (InvivoGen, 50 μg/mouse) as an adjuvant. As a negative control, physiological saline (100 μL/mouse) comprising the same amount of aluminum hydroxide was administered twice. Two weeks after the second administration, serum was recovered to evaluate the antibody titer with respect to human αSyn by ELISA.
# (§2) ELISA was performed by the following method. 96-well plates were coated with human αSyn (Sigma) at 0.2 μg/well. After washing with PBST (Phosphate Buffered Saline comprising 0.05% Tween) once, blocking was performed with 3% skim milk (FUJIFILM Wako Pure Chemical Corporation). After washing with PBST three times, diluted serum was added to cause a reaction at room temperature for 1 hour. Furthermore, after washing with PBST three times, Goat anti-mouse IgG-HRP (abcam) was added to cause a reaction at room temperature for 1 hour. After washing with PBST three times, SureBlue TMB Microwell Peroxidase Substrate (KPL) was added to cause a reaction at room temperature for 10 minutes while light shielding. An equal volume of a TMB Stop Solution (KPL) was added to stop the reaction, and the absorbance at 450 nm was measured. ELISA with respect to aggregated human αSyn was performed by coating with the aggregated human αSyn (Stress Marq) at 15 ng/well instead of human αSyn in the above-mentioned method.
# The antibody-inducing ability of the AJ-human αSyn peptide conjugates (AJ-p54, AJ-p54-KLH, and AJ-DMPVDPDN) produced in Example 1 with respect to human αSyn and aggregated human αSyn in mice was evaluated. Physiological saline or the AJ-human αSyn peptide conjugate (250 μg/mouse) was intramuscularly administered to balb/c mice (females, 6 weeks old, CLEA Japan, Inc.) twice at a 2-week interval using Alum (InvivoGen, 50 μg/mouse) as an adjuvant. Furthermore, KLH-DMPVDPDN (25 μg/mouse) was administered using Alum (InvivoGen, 50 μg/mouse) as an adjuvant. Two weeks after the second administration, serum was recovered to evaluate the antibody titer by ELISA. ELISA was performed by the method described in Example 2.
# The antibody-inducing ability of the produced various human αSyn peptide conjugates with respect to human αSyn and aggregated human αSyn in the mice was evaluated by the method described in Example 2 using the antibody titers with respect to human αSyn and aggregated human αSyn of the mouse immune serum. […] In Table 6, the antibody titer of AJ-p242, AJ-p244, AJ-p347, or AJ-p361 is shown with the antibody titer of AJ-p150 as a control being 1 (logarithm). In addition, the antibody titers of AJ-p229, AJ-p237, and AJ-p298 are shown with the antibody titer of AJ-p54 as a control being 1 (logarithm).
# The antibody-inducing ability of the AJ-human αSyn peptide conjugates with a modified linker with respect to human αSyn and aggregated human αSyn in the mice was evaluated using the antibody titers with respect to human αSyn and aggregated human αSyn of the mouse immune serum. […] In Table 8, the antibody titers of the AJ-human αSyn peptide conjugates with various modified linkers comprising p54 are shown with the antibody titer of AJ-p54 as a control being 1 (logarithm). In addition, the antibody titers of the AJ-human αSyn peptide conjugates with various modified linkers comprising p150 are shown with the antibody titer of AJ-p150 as a control being 1 (logarithm).
# [2] = tested on: human αSyn; experiment: Antibody-inducing ability in mice: ELISA antibody titer of immune serum with respect to human αSyn; format: in vivo, mouse; design: key to Antibody titer with respect to human αSyn, relative to control: log titer relative to control conjugate (control = 1); details: for Antibody titer with respect to human αSyn, relative to control: mice; for Antibody titer compared with control conjugate (in words): Example 9, mice, human αSyn and aggregated human αSyn, control AJ-p150 or AJ-p54; for Antibody titer with respect to human αSyn (N = 4 − 6, mean ± standard deviation): Example 2, serum 2 weeks after second administration
# Method: as §1
# as §2, with “above-mentioned method. […]” for “above-mentioned method.”
# The antibody-inducing ability of the produced various human αSyn peptide conjugates with respect to human αSyn and aggregated human αSyn in the mice was evaluated by the method described in Example 2 using the antibody titers with respect to human αSyn and aggregated human αSyn of the mouse immune serum. […] In Table 6, the antibody titer of AJ-p242, AJ-p244, AJ-p347, or AJ-p361 is shown with the antibody titer of AJ-p150 as a control being 1 (logarithm). In addition, the antibody titers of AJ-p229, AJ-p237, and AJ-p298 are shown with the antibody titer of AJ-p54 as a control being 1 (logarithm). […]
# [3] = Example 10, modified linker, titer of AJ-p54 or AJ-p150 as control being 1 (logarithm)
# [4] = Example 9, N = 4, titer of AJ-p150 or AJ-p54 as control being 1 (logarithm)
# [5] = balb/c mice, i.m. twice at 2-week interval, Alum, AJ conjugates 250 μg/mouse, KLH-DMPVDPDN 25 μg/mouse
# [6] = Example 4, balb/c mice, i.m. twice at 2-week interval, Alum, AJ conjugates 250 μg/mouse, KLH-DMPVDPDN 25 μg/mouse
substance,measurement,setting,value
ELKLIFLHRLKRLRKRLKRKαKKKDQLGKNE [AJ-αK-p54],"Antibody titer with respect to aggregated human αSyn, relative to control",[1]; [3],0.92
same,"Antibody titer with respect to human αSyn, relative to control",[2]; [3],0.99
ELKLIFLHRLKRLRKRLKRKXAAYEMPSEEG (ELKLIFLHRLKRLRKRLKRK[Ahx]AAYEMPSEEG) [AJ-p242],"Antibody titer with respect to aggregated human αSyn, relative to control",[1]; [4],1.12
same,Antibody titer compared with control conjugate (in words),[2],same level of an antibody titer
same,"Antibody titer with respect to human αSyn, relative to control",[2]; [4],1.06
ELKLIFLHRLKRLRKRLKRKXKKDQLGKND (ELKLIFLHRLKRLRKRLKRK[Ahx]KKDQLGKND) [AJ-p233],"Antibody titer with respect to aggregated human αSyn (N = 4 − 6, mean ± standard deviation)",[1]; [5],555 ± 377
same,"Antibody titer with respect to human αSyn (N = 4 − 6, mean ± standard deviation)",[2]; [5],1323 ± 1505
ELKLIFLHRLKRLRKRLKRKXDAFEMPSEEG (ELKLIFLHRLKRLRKRLKRK[Ahx]DAFEMPSEEG) [AJ-p361],"Antibody titer with respect to aggregated human αSyn, relative to control",[1]; [4],0.95
same,Antibody titer compared with control conjugate (in words),[2],same level of an antibody titer
same,"Antibody titer with respect to human αSyn, relative to control",[2]; [4],0.92
ELKLIFLHRLKRLRKRLKRKXKKTQLGKNE (ELKLIFLHRLKRLRKRLKRK[Ahx]KKTQLGKNE) [AJ-p229],"Antibody titer with respect to aggregated human αSyn, relative to control",[1]; [4],1.02
same,Antibody titer compared with control conjugate (in words),[2],same level of an antibody titer
same,"Antibody titer with respect to human αSyn, relative to control",[2]; [4],0.92
ELKLIFLHRLKRLRKRLKRKϵKEAYEMPSEE [AJ-εK-p150],"Antibody titer with respect to aggregated human αSyn, relative to control",[1]; [3],0.86
same,"Antibody titer with respect to human αSyn, relative to control",[2]; [3],0.82
ELKLIFLHRLKRLRKRLKRKϵKKKKEAYEMPSEE [AJ-εKKKK-p150],"Antibody titer with respect to aggregated human αSyn, relative to control",[1]; [3],1.00
same,"Antibody titer with respect to human αSyn, relative to control",[2]; [3],0.97
"ELKLIFLHRLKRLRKRLKRKXDMPVDPDN (ELKLIFLHRLKRLRKRLKRK[Ahx]DMPVDPDN) [AJ-DMPVDPDN, reference compound]",Induction of the antibody to aggregated human αSyn (in words),"[1]; Example 4, balb/c mice",very weak antibody-inducing effect
same,Antibody titer with respect to aggregated human αSyn (mean ± standard deviation),[1]; [6],358 ± 140
same,Induction of the antibody to human αSyn (in words),"[2]; Example 4, balb/c mice",very weak antibody-inducing effect
same,Antibody titer with respect to human αSyn (mean ± standard deviation),[2]; [6],168 ± 122
ELKLIFLHRLKRLRKRLKRKEAAAKEAYEMPSEE [AJ-EAAAK-p150],"Antibody titer with respect to aggregated human αSyn, relative to control",[1]; [3],1.16
same,"Antibody titer with respect to human αSyn, relative to control",[2]; [3],1.14
ELKLIFLHRLKRLRKRLKRKXEAFEMPSEEG (ELKLIFLHRLKRLRKRLKRK[Ahx]EAFEMPSEEG) [AJ-p277],"Antibody titer with respect to aggregated human αSyn (N = 4 − 6, mean ± standard deviation)",[1]; [5],576 ± 322
same,"Antibody titer with respect to human αSyn (N = 4 − 6, mean ± standard deviation)",[2]; [5],1920 ± 1585
ELKLIFLHRLKRLRKRLKRKXKKNQLGKNE (ELKLIFLHRLKRLRKRLKRK[Ahx]KKNQLGKNE) [AJ-p237],"Antibody titer with respect to aggregated human αSyn, relative to control",[1]; [4],0.95
same,Antibody titer compared with control conjugate (in words),[2],same level of an antibody titer
same,"Antibody titer with respect to human αSyn, relative to control",[2]; [4],0.91
ELKLIFLHRLKRLRKRLKRKGGGGSEAYEMPSEE [AJ-GGGGS-p150],"Antibody titer with respect to aggregated human αSyn, relative to control",[1]; [3],1.25
same,"Antibody titer with respect to human αSyn, relative to control",[2]; [3],1.19
ELKLIFLHRLKRLRKRLKRKϵKKKEAYEMPSEE [AJ-εKKK-p150],"Antibody titer with respect to aggregated human αSyn, relative to control",[1]; [3],0.90
same,"Antibody titer with respect to human αSyn, relative to control",[2]; [3],0.79
ELKLIFLHRLKRLRKRLKRKXKKDELGKDE (ELKLIFLHRLKRLRKRLKRK[Ahx]KKDELGKDE) [AJ-p298],"Antibody titer with respect to aggregated human αSyn, relative to control",[1]; [4],0.93
same,Antibody titer compared with control conjugate (in words),[2],same level of an antibody titer
same,"Antibody titer with respect to human αSyn, relative to control",[2]; [4],0.82
ELKLIFLHRLKRLRKRLKRKϵKKKKKDQLGKNE [AJ-εKKK-p54],"Antibody titer with respect to aggregated human αSyn, relative to control",[1]; [3],0.88
same,"Antibody titer with respect to human αSyn, relative to control",[2]; [3],0.74
ELKLIFLHRLKRLRKRLKRKXDAYEMPSEEG (ELKLIFLHRLKRLRKRLKRK[Ahx]DAYEMPSEEG) [AJ-p276],"Antibody titer with respect to aggregated human αSyn (N = 4 − 6, mean ± standard deviation)",[1]; [5],896 ± 256
same,"Antibody titer with respect to human αSyn (N = 4 − 6, mean ± standard deviation)",[2]; [5],1792 ± 512
ELKLIFLHRLKRLRKRLKRKXKKNQLGKND (ELKLIFLHRLKRLRKRLKRK[Ahx]KKNQLGKND) [AJ-p272],Antibody-inducing ability regarding the aggregated human αSyn (in words),"[1]; Example 2, balb/c mice",particularly strong antibody-inducing ability
same,"Antibody titer with respect to aggregated human αSyn (N = 4 − 6, mean ± standard deviation)",[1]; [5],1536 ± 1724
same,"Antibody titer with respect to human αSyn (N = 4 − 6, mean ± standard deviation)",[2]; [5],4096 ± 2896
